Where “and” joins values, the source holds several entries; their conditions need not be identical. Equal values may be shown once.
Test system: urinary bladder cell line (UM-UC-3)
Experiment: XTT-assay proliferation rate, urinary bladder cell line
Format: cell-based, human
Conditions: for Proliferation rate compared to untreated medium control: UM-UC-3 (Table 3); for Proliferation rate in per cent compared to untreated medium control: UM-UC-3
Method: Commercially available human tumor cell lines were purchased from ATCC (ATCC/LGC-standards, Borás, Sweden). […] Briefly, ampoules of frozen cells were thawed by submerging into a 37° C. water bath for 45 s. […] With supernatant discarded, cell pellets were further resuspended with 5 ml complete medium into 25 cm^2 cell culture flasks (Cell+, Sarstedt, Nümbrecht, Germany). Tumor cells were cultured until sub-confluence and further sub-cultured with Trypsin (0.5%), EDTA (0.2%) solution (T4174, TE-10x, Sigma) in sterile sodium chloride. Culture media was changed two-three times a week. Culture flasks (Cell+, Sarstedt, Nümbrecht, Germany) and culture plates (Falcon/BD, Franklin Lakes, N.J., USA) were used for experimental set-ups. Cells were regularly monitored using an inverted microscope connected to a digital photo equipment (Axiovert 25 and Axiovision, Zeiss, Carl Zeiss AG, Germany) (FIG. 1). Described culture techniques and equipment have been used extensively in the laboratory
The proliferation rates of the different human tumor cell lines were studied using a method based on the conversion of a sodium salt (XTT-assay, Sigma) into a stable orange color that could be analyzed in a spectrophotometer. […] The color change was measured using a 96-well plate reader with software to calculate the absorbance at 450 nm (V-max/Softmax Pro, Molecular Devices, USA).
Increasing concentrations of substance ivermectin was added with an 8-channel pipette (Titertek, Kem-En-Tec, Taastrup, Denmark) together with sterile pipette tips (Molecular Bioproducts, San Diego, Calif., USA). Cell cultures including active substances were incubated for 24 hours (and 96 hours). Untreated wells including culture medium only served as untreated controls. The XTT-assay substrate was added and after gentle agitation using a micro plate shaker, absorbencies at 450 and 650 nm were measured. Levels from medium were subtracted and compared with control wells, using culture medium only.

Substance: 22,23-dihydroavermectin B1a+22,23-dihydroavermectin B1b [ivermectin]
- Proliferation rate compared to untreated medium control (IVM 1 μmol/L alone): 99 ± 1%
- Proliferation rate compared to untreated medium control (IVM 10 μmol/L alone): 105 ± 3%
- Proliferation rate compared to untreated medium control (IVM 100 μmol/L alone): 90±1%
- Proliferation rate compared to untreated medium control (IVM 100 μmol/L alone, listed as IVM): 90 ± 1%
- Proliferation rate in per cent compared to untreated medium control (ivermectin 10e-9 mol/L): 100 ± 3%
- Proliferation rate in per cent compared to untreated medium control (ivermectin 10e-8 mol/L): 96 ± 5%
- Proliferation rate in per cent compared to untreated medium control (ivermectin 10e-7 mol/L): 95 ± 9%
- Proliferation rate in per cent compared to untreated medium control (ivermectin 10e-6 mol/L): 91 ± 3%
- Proliferation rate in per cent compared to untreated medium control (ivermectin 10e-5 mol/L): 34±8% and 34 ± 6%
- Proliferation rate in per cent compared to untreated medium control (ivermectin 10e-4 mol/L): 34±3%

— patent US9782424B2, “Synergistic combination comprising avermectins and a NSAID for tumor inhibition” (Ectin Research AB, priority 2011, dated 2017)
